Measured values taken from publication PMC12352620, “Fragment-based discovery of dual ligand pharmacophores for lipid-sensing transcription factors for designed polypharmacology” (RSC Medicinal Chemistry, 2025).

Key:
Assay type in all cases: cell-based
THRα = target: T1, THRα (Homo sapiens, UniProt P10827); assay: Gal4-hybrid reporter gene assay THRα; conditions: for EC50 THRα / EC50: HEK293T, Gal4-hybrid reporter, Inactive = tested 1–300 μM; for max. fold activation THRα: maximum reporter activation vs DMSO (0.1%) treated cells
T1 construct: expressed in transfected cells; host or cells: HEK293T
T1 sequence (P10827 128-410 isoform P10827-2 limits assumed): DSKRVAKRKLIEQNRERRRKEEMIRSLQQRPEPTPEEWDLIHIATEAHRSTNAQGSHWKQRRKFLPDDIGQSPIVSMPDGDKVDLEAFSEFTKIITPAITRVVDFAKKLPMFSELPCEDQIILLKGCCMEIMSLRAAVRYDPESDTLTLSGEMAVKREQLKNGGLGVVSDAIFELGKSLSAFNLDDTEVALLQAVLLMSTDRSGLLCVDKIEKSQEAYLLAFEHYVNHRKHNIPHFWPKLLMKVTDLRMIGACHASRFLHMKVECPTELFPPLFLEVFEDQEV
Protocol: (§1) NR modulation was determined as described previously[45] in Gal4 hybrid reporter gene assays in HEK293T cells (German Collection of Microorganisms and Cell Culture GmbH, DSMZ) using pFR-Luc (Stratagene, La Jolla, CA, USA; reporter), pRL-SV40 (Promega, Madison, WI, USA; internal control) and the hybrid receptor clones pFA-CMV-hTHRα-LBD,[46] pFA-CMV-hPPARγ-LBD,[47] pFA-CMV-hFXR-LBD,[48] and pFA-CMV-hRXRα-LBD,[49] coding for the hinge region and ligand binding domain of the canonical isoform of the respective NR. Cells were cultured in Dulbecco's modified Eagle's medium (DMEM), high glucose supplemented with 10% fetal calf serum (FCS), sodium pyruvate (1 mM), penicillin (100 U mL^−1), and streptomycin (100 μg mL^−1) at 37 °C and 5% CO2 and seeded in 96-well plates (3 × 10^4 cells per well). After 24 h, medium was changed to Opti-MEM without supplements and cells were transiently transfected using Lipofectamine LTX reagent (Invitrogen, Carlsbad, CA, USA) according to the manufacturer's protocol. Five hours after transfection, cells were incubated with the test compounds in Opti-MEM supplemented with penicillin (100 U mL^−1), streptomycin (100 μg mL^−1) and 0.1% DMSO for 16 h before luciferase activity was measured using the Dual-Glo Luciferase Assay System (Promega) according to the manufacturer's protocol on a Tecan Spark luminometer (Tecan Deutschland GmbH, Crailsheim, Germany). Firefly luminescence was divided by Renilla luminescence and multiplied by 1000 resulting in relative light units (RLU) to normalize for transfection efficiency and cell growth. Fold activation was obtained by dividing the mean RLU of test compound by the mean RLU of the untreated control. All samples were tested in at least three biologically independent experiments in duplicates. For dose–response curve fitting and calculation of EC50 values, the equation “[agonist] vs. response − variable slope (four parameters)” was used in GraphPad Prism (version 7.00, GraphPad Software, La Jolla, CA, USA). For selectivity profiling, the hybrid reporter gene assay was performed with Gal4 fusion receptor plasmids for RARα, PPARα, PPARδ, VDR, CAR and LXRα. The following reference agonists were used: triiodothyronine (1 μM, THR), all-trans retinoic acid (1 μM, RAR), GW7647 (1 μM, PPARα), pioglitazone (1 μM, PPARγ), L165041 (1 μM, PPARδ), calcitriol (1 μM, VDR), CITCO (1 μM, CAR), T0901317 (1 μM, LXR), GW4064 (1 μM, FXR), bexarotene (1 μM, RXR).

RXRα = target: T2, RXRα (Homo sapiens, UniProt P19793); assay: Gal4-hybrid reporter gene assay RXRα; conditions: mean ± S.E.M., n ≥ 3; for EC50 RXRα / EC50: HEK293T, Gal4-hybrid reporter, Inactive = tested 1–300 μM; for max. fold activation RXRα: maximum reporter activation vs DMSO (0.1%) treated cells
T2 construct: expressed in transfected cells; host or cells: HEK293T
T2 sequence (P19793 227-458 limits assumed): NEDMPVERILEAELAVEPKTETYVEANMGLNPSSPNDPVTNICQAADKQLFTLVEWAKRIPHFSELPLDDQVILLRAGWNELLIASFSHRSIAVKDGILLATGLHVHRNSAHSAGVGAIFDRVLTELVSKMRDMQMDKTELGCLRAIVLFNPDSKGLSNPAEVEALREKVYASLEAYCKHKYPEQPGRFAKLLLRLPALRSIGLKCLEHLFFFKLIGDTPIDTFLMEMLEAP
Protocol: as §1

PPARγ = target: T3, PPARγ (Homo sapiens, UniProt P37231); assay: Gal4-hybrid reporter gene assay PPARγ; conditions: mean ± S.E.M., n ≥ 3; for max. fold activation PPARγ: maximum reporter activation vs DMSO (0.1%) treated cells
T3 construct: expressed in transfected cells; host or cells: HEK293T
T3 sequence (P37231 238-503 limits assumed): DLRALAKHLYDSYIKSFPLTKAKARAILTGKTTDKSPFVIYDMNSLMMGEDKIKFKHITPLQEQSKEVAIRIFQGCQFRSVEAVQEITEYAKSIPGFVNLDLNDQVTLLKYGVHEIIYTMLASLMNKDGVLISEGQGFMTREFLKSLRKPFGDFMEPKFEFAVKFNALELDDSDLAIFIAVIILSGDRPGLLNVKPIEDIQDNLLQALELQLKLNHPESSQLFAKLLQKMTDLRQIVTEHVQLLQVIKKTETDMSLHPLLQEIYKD
Protocol: as §1

FXR = target: T4, FXR (Homo sapiens, UniProt Q96RI1); assay: Gal4-hybrid reporter gene assay FXR; conditions: mean ± S.E.M., n ≥ 3; for EC50 FXR / EC50: HEK293T, Gal4-hybrid reporter, Inactive = tested 1–300 μM; for max. fold activation FXR: maximum reporter activation vs DMSO (0.1%) treated cells
T4 construct: expressed in transfected cells; host or cells: HEK293T
T4 sequence (Q96RI1 262-486 limits assumed): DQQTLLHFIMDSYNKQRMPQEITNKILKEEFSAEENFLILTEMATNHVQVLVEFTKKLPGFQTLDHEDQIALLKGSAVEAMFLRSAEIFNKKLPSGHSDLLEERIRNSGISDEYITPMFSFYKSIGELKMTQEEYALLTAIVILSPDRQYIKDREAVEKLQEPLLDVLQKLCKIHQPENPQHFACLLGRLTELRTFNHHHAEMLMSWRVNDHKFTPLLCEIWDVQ
Protocol: as §1

[1] = HEK293T, Gal4-hybrid reporter, Inactive = tested 1–300 μM

O=C(O)COc1ccccc1Cc1ccccc1 [2.43]
EC50 THRα (THRα; mean ± S.E.M., n ≥ 3): Inactive
EC50 RXRα (RXRα): Inactive
EC50 (PPARγ; [1]): 47 ± 3 µM
max. fold activation PPARγ (PPARγ): (17.4 ± 0.3-fold)
EC50 FXR (FXR): Inactive

O=C(O)C(c1ccccc1)(c1ccccc1)c1ccccc1 [compound 19]
type of activity on THRα (THRα; Gal4-hybrid reporter gene assay): Inverse agonist
remaining THRα activity (THRα; inverse agonism, % remain., mean ± S.E.M., n ≥ 3): (41 ± 5% remain.)
IC50 (THRα; inverse agonism, mean ± S.E.M., n ≥ 3): 36 µM
EC50 RXRα (RXRα): Inactive
EC50 PPARγ (PPARγ; [1]): Inactive
EC50 FXR (FXR): Inactive

CCOc1ccc(C(=O)/C=C/C(=O)O)cc1 [2.7]
EC50 (THRα; mean ± S.E.M., n ≥ 3): 27 ± 1 µM
max. fold activation THRα (THRα; mean ± S.E.M., n ≥ 3): (8.9 ± 0.5-fold)
EC50 (RXRα): 33 ± 6 µM
max. fold activation RXRα (RXRα): (8 ± 1-fold)
EC50 (PPARγ; [1]): 25.9 ± 0.4 µM
max. fold activation PPARγ (PPARγ): (31.2 ± 0.6-fold)
EC50 (FXR): 26 ± 1 µM
max. fold activation FXR (FXR): (9.5 ± 0.4-fold)

O=C(O)/C=C/C(=O)c1ccc(Cl)cc1 [4.5, (E)-4-Oxo-4-(4-chlorophenyl)but-2-enoic acid]
EC50 (THRα; mean ± S.E.M., n ≥ 3): 46 ± 7 µM
max. fold activation THRα (THRα; mean ± S.E.M., n ≥ 3): (7 ± 2-fold)
EC50 (RXRα): 46 ± 1 µM
max. fold activation RXRα (RXRα): (4.0 ± 0.2-fold)
EC50 (PPARγ; [1]): 30 ± 4 µM
max. fold activation PPARγ (PPARγ): (12 ± 2-fold)
EC50 (FXR): 40 ± 3 µM
max. fold activation FXR (FXR): (3.1 ± 0.3-fold)

O=C(O)CCCC#Cc1ccccc1 [2.27]
EC50 THRα (THRα; mean ± S.E.M., n ≥ 3): Inactive
EC50 (RXRα): 129 ± 11 µM
max. fold activation RXRα (RXRα): (22.5 ± 1.5-fold)
EC50 (PPARγ; [1]): 106 ± 5 µM
max. fold activation PPARγ (PPARγ): (25.0 ± 0.8-fold)
EC50 FXR (FXR): Inactive

O=C(O)/C=C/C=C/c1ccc2c(c1)OCO2 [2.6]
EC50 (THRα; mean ± S.E.M., n ≥ 3): 225 ± 91 µM
max. fold activation THRα (THRα; mean ± S.E.M., n ≥ 3): (5.0 ± 1.4-fold)
EC50 (RXRα): 112 ± 19 µM
max. fold activation RXRα (RXRα): (3.4 ± 0.2-fold)
EC50 (PPARγ; [1]): 137 ± 8 µM
max. fold activation PPARγ (PPARγ): (9.3 ± 0.5-fold)
EC50 (FXR): 138 ± 44 µM
max. fold activation FXR (FXR): (5.2 ± 0.8-fold)

COc1ccc(/C=C(/C(=O)O)C(F)(F)F)cc1 [2.19]
EC50 (THRα; mean ± S.E.M., n ≥ 3): 55 ± 19 µM
max. fold activation THRα (THRα; mean ± S.E.M., n ≥ 3): (2.6 ± 0.3-fold)
EC50 (RXRα): 55 ± 8 µM
max. fold activation RXRα (RXRα): (3.5 ± 0.1-fold)
EC50 (PPARγ; [1]): 86 ± 8 µM
max. fold activation PPARγ (PPARγ): (21 ± 1-fold)
EC50 (FXR): 108 ± 22 µM
max. fold activation FXR (FXR): (3.2 ± 0.4-fold)

N#Cc1c(F)c(F)cc(C(=O)O)c1F [compound 58]
EC50 THRα (THRα; mean ± S.E.M., n ≥ 3): Inactive
EC50 RXRα (RXRα): Inactive
EC50 (PPARγ; [1]): 39 ± 3 µM
max. fold activation PPARγ (PPARγ): (9.6 ± 0.5-fold)
EC50 FXR (FXR): Inactive
